Results from ChEMBL document CHEMBL1201862, “PubChem BioAssay data set” (2004).
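Briefly, cells in 96-well plates were exposed to five compound concentrations for 48 h, and endpoints were estimated by linear interpolation. GI50 = concentration required for 50% inhibition of growth.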 The source made the active and inactive calls. No stated cut-off is given here; in the data, active = GI50 up to about 1.1 µM and inactive = higher.

Key:
Test in all cases: NCI tumour cell line growth inhibition, 48 h
786-0 = tested on: 786-0
A549 = tested on: A549
CCRF-CEM = tested on: CCRF-CEM
DU-145 = tested on: DU-145
HCT-15 = tested on: HCT-15
HL-60 = tested on: HL-60
K562 = tested on: K562
LOX IMVI = tested on: LOX IMVI
M14 = tested on: M14
MDA-MB-435 = tested on: MDA-MB-435
NCI-H460 = tested on: NCI-H460
OVCAR-8 = tested on: OVCAR-8
RXF 393 = tested on: RXF 393
SF-268 = tested on: SF-268
SF-295 = tested on: SF-295
SK-OV-3 = tested on: SK-OV-3
TK-10 = tested on: TK-10
UACC-257 = tested on: UACC-257
UACC-62 = tested on: UACC-62
SK-MEL-5 = tested on: SK-MEL-5

Row | Structure (SMILES) | GI50 (786-0) | GI50 (A549) | GI50 (CCRF-CEM) | GI50 (DU-145) | GI50 (HCT-15) | GI50 (HL-60) | GI50 (K562) | GI50 (LOX IMVI) | GI50 (M14) | GI50 (MDA-MB-435) | GI50 (NCI-H460) | GI50 (OVCAR-8) | GI50 (RXF 393) | GI50 (SF-268) | GI50 (SF-295) | GI50 (SK-OV-3) | GI50 (TK-10) | GI50 (UACC-257) | GI50 (UACC-62) | GI50 (SK-MEL-5)
1 | c1ccc([P+](CCCCCC[P+](c2ccccc2)(c2ccccc2)c2ccccc2)(c2ccccc2)c2ccccc2)cc1 | 24 µM (inactive) | 7.41 µM (inactive) | 13.1 µM (inactive) | 11.9 µM (inactive) | > 100 µM | 10.6 µM (inactive) | 11.7 µM (inactive) | 12.2 µM (inactive) | 28.6 µM (inactive) | 15.2 µM (inactive) | 9.38 µM (inactive) | 13.3 µM (inactive) | 11.6 µM (inactive) | 3.49 µM (inactive) | 59.4 µM (inactive) | 62.2 µM (inactive) | 8.36 µM (inactive) | 1.59 µM (inactive) | 18 µM (inactive) | –
2 | C1CCCCC2(CCCCCCCCC3(CCC1)OCCO3)OCCO2 | > 100 µM (inactive) | > 100 µM (inactive) | – | > 100 µM (inactive) | > 100 µM | > 100 µM (inactive) | > 100 µM (inactive) | > 100 µM (inactive) | > 100 µM (inactive) | > 100 µM (inactive) | > 100 µM (inactive) | > 100 µM (inactive) | > 100 µM (inactive) | > 100 µM (inactive) | > 100 µM (inactive) | > 100 µM (inactive) | > 100 µM (inactive) | > 100 µM (inactive) | > 100 µM (inactive) | > 100 µM (inactive)
3 | CC(=O)NC1C(OCc2ccccc2)OC(CO)C(O)C1OCC(=O)NC(C)C(=O)NC(CCC(=O)OCCNC(=O)c1cccc2cc3ccccc3nc12)C(N)=O (centres undefined) | 18.7 µM (inactive) | 6.11 µM (inactive) | – | 11.3 µM (inactive) | 13.9 µM | 22.2 µM (inactive) | 39.1 µM (inactive) | 11.2 µM (inactive) | 20.6 µM (inactive) | 17.2 µM (inactive) | 8.95 µM (inactive) | 18 µM (inactive) | 16.5 µM (inactive) | 22.3 µM (inactive) | 21.4 µM (inactive) | 21.6 µM (inactive) | 16.1 µM (inactive) | 28.2 µM (inactive) | 15.7 µM (inactive) | 17 µM (inactive)
4 | [N-]=[N+]=C(C(=O)C(=[N+]=[N-])C(=O)c1ccccc1)C(=O)c1ccccc1 | > 100 µM (inactive) | > 100 µM (inactive) | – | > 100 µM (inactive) | > 100 µM | > 100 µM (inactive) | > 100 µM (inactive) | > 100 µM (inactive) | > 100 µM (inactive) | > 100 µM (inactive) | > 100 µM (inactive) | > 100 µM (inactive) | > 100 µM (inactive) | > 100 µM (inactive) | > 100 µM (inactive) | – | > 100 µM (inactive) | > 100 µM (inactive) | > 100 µM (inactive) | > 100 µM (inactive)
5 | CCCCCCCCCCCCCC(=O)O.O=CC(O)C(O)C(OC1OC(CO)C(O)C(O)C1O)C(O)CO (centres undefined) | > 100 µM (inactive) | 80.2 µM (inactive) | – | > 100 µM (inactive) | 22.9 µM | 18.7 µM (inactive) | 26.4 µM (inactive) | – | > 100 µM (inactive) | 40.6 µM (inactive) | > 100 µM (inactive) | > 100 µM (inactive) | > 100 µM (inactive) | > 100 µM (inactive) | 73.1 µM (inactive) | > 100 µM (inactive) | 37.7 µM (inactive) | > 100 µM (inactive) | 74.6 µM (inactive) | 56.8 µM (inactive)
6 | Cc1ccn2c(CCc3nnc4cc(C)ccn34)nnc2c1 | > 100 µM (inactive) | > 100 µM (inactive) | – | > 100 µM (inactive) | > 100 µM | 0.129 µM (active) | – | – | > 100 µM (inactive) | > 100 µM (inactive) | > 100 µM (inactive) | > 100 µM (inactive) | > 100 µM (inactive) | > 100 µM (inactive) | > 100 µM (inactive) | > 100 µM (inactive) | > 100 µM (inactive) | > 100 µM (inactive) | > 100 µM (inactive) | > 100 µM (inactive)
7 | COc1cc(C2=C(c3cc(OC)c4ccccc4c3OC)C(=O)c3ccccc3C2=O)c(OC)c2ccccc12 | > 100 µM (inactive) | > 100 µM (inactive) | > 100 µM (inactive) | > 100 µM (inactive) | > 100 µM | 10.2 µM (inactive) | – | > 100 µM (inactive) | 82.4 µM (inactive) | > 100 µM (inactive) | > 100 µM (inactive) | > 100 µM (inactive) | > 100 µM (inactive) | > 100 µM (inactive) | > 100 µM (inactive) | > 100 µM (inactive) | > 100 µM (inactive) | > 100 µM (inactive) | > 100 µM (inactive) | > 100 µM (inactive)
8 | CCOC(=O)C1CCC(=O)N1C(=O)c1cccc(Cl)c1 (centres undefined) | > 100 µM (inactive) | > 100 µM (inactive) | > 100 µM (inactive) | > 100 µM (inactive) | > 100 µM | > 100 µM (inactive) | > 100 µM (inactive) | > 100 µM (inactive) | > 100 µM (inactive) | > 100 µM (inactive) | > 100 µM (inactive) | > 100 µM (inactive) | > 100 µM (inactive) | > 100 µM (inactive) | > 100 µM (inactive) | – | > 100 µM (inactive) | > 100 µM (inactive) | 14.8 µM (inactive) | > 100 µM (inactive)
9 | CCNC1=C(NC(=O)c2ccccc2)C(=O)c2ccccc2C1=O | > 100 µM (inactive) | 67.6 µM (inactive) | 70.1 µM (inactive) | 57 µM (inactive) | 18.5 µM | 36.3 µM (inactive) | 45.4 µM (inactive) | – | 26.2 µM (inactive) | 7.21 µM (inactive) | 39.4 µM (inactive) | 46.8 µM (inactive) | 24.2 µM (inactive) | – | 32.4 µM (inactive) | 24 µM (inactive) | 98.4 µM (inactive) | 23.4 µM (inactive) | 20 µM (inactive) | > 10 µM (inactive)
10 | O=C(NCCCCNCCCNC(=O)c1cc(-c2ccccc2)nc2ccccc12)c1cc(-c2ccccc2)nc2ccccc12 | 1.67 µM (inactive) | 1.65 µM (inactive) | 1.62 µM (inactive) | 1.78 µM (inactive) | 1.82 µM | 1.71 µM (inactive) | 1.81 µM (inactive) | 1.54 µM (inactive) | 2.1 µM (inactive) | 1.79 µM (inactive) | 1.91 µM (inactive) | 1.69 µM (inactive) | 2.19 µM (inactive) | 2.03 µM (inactive) | 1.77 µM (inactive) | – | 1.59 µM (inactive) | 1.73 µM (inactive) | 2.12 µM (inactive) | 1.44 µM (inactive)
11 | COC(=O)c1ccccc1C1CN=NC12Cc1ccc3ccccc3c1C2=O (centres undefined) | > 100 µM (inactive) | 85.3 µM (inactive) | 70.5 µM (inactive) | > 100 µM (inactive) | > 100 µM | 8.43 µM (inactive) | > 100 µM (inactive) | > 100 µM (inactive) | > 100 µM (inactive) | 30.7 µM (inactive) | 80 µM (inactive) | > 100 µM (inactive) | 78.3 µM (inactive) | > 100 µM (inactive) | 38.5 µM (inactive) | – | > 100 µM (inactive) | > 100 µM (inactive) | > 100 µM (inactive) | 6.08 µM (inactive)
